# Measured values reported in patent US6737383B1, “Herbicidal oxadiazolidines” (priority 1999, dated 2004).
# Columns and labels:
# pigweed = test: Test B pre/postemergence pigweed; type: in vivo, Amaranthus retroflexus
# How it was run: (§1)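 Herbicidal effect was estimated by eye on a ten-point control scale after plants spent twelve to sixteen days in a greenhouse following soil or foliar treatment. Foliar sprays targeted plants at one to four leaves; all doses were formulated in a non-phytotoxic solvent with surfactant.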
# green foxtail = test: Test E green foxtail; type: in vivo, Setaria viridis; conditions: Preemergence
# Italian ryegrass = test: Test E Italian ryegrass; type: in vivo, Lolium multiflorum; conditions: Preemergence
# purple nutsedge = test: Test B pre/postemergence purple nutsedge; type: in vivo, Cyperus rotundus
# How it was run: as §1
# blackgrass = test: Test E blackgrass; type: in vivo, Alopecurus myosuroides; conditions: Preemergence
# large crabgrass = test: Test D large crabgrass; type: in vivo, Digitaria sanguinalis; conditions: Preemergence, 0 to 100 scale
# How it was run: (§2)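 Values are visual plant-response ratings (0 no injury, 100 complete control) recorded 14 to 21 days after herbicide treatment, using a non-phytotoxic solvent mixture containing surfactant. Preemergence applications went to the surface of pots holding freshly sown seed in sandy loam.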
# sugar beet = test: Test B pre/postemergence sugar beet; type: in vivo, Beta vulgaris; conditions: for Plant response rating, Sugarbeets: Rate 250 g/ha
# How it was run: as §1
# common ragweed = test: Test D common ragweed; type: in vivo, Ambrosia elatior; conditions: Preemergence, 0 to 100 scale
# How it was run: as §2
# winter wheat [1] = test: Test E winter wheat; type: in vivo, Triticum aestivum; conditions: Preemergence
# winter wheat [2] = test: Test E winter wheat; type: in vivo, Triticum aestivum; conditions: Postemergence
# How it was run: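 For postemergence, application to 1- to 4-leaf plants growing in a 60:40 sandy loam–potting mix substrate. Formulation: non-phytotoxic solvent mixture plus surfactant. Untreated controls served as the reference for the visual rating after ~21–28 days.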
# wild oat = test: Test E wild oat; type: in vivo, Avena fatua; conditions: Preemergence, 0 to 100 scale where 0 is no effect and 100 is complete control
# rice = test: Test B flood test rice; type: in vivo, Oryza sativa
# How it was run: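 Plants were grown to the 2-leaf stage before treatment with test chemical, then held in a greenhouse for twelve to sixteen days. Injury was visually rated against untreated controls on a 0–10 scale, where 0 is no effect and 10 is complete control.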
# winter barley = test: Test E winter barley; type: in vivo, Hordeum vulgare; conditions: Preemergence
# [3] = Postemergence, Rate 62 g/ha, scale 0 to 10, 0 is no effect, 10 is complete control
# [4] = Postemergence, Rate 125 g/ha, scale of 0 to 10 where 0 is no effect and 10 is complete control
# [5] = Preemergence, Rate 62 g/ha, scale 0 to 10 (0 no effect, 10 complete control)
# [6] = Preemergence, Rate 125 g/ha, scale 0 to 10 (0 no effect, 10 complete control)
# [7] = Preemergence, Rate 250 g/ha, scale of 0 to 10 where 0 is no effect and 10 is complete control
# [8] = Preemergence, Rate 500 g/ha, scale 0 (no effect) to 10 (complete control)
# [9] = Rate 500 g/ha, Postemergence, scale 0 to 10, 0 no effect, 10 complete control
# [10] = Rate 500 g/ha, 0 to 100 scale where 0 is no effect and 100 is complete control
# [11] = Rate 1000 g/ha, 0 to 100 scale where 0 is no effect and 100 is complete control
# [12] = Rate 125 g/ha, 0 no injury, 100 complete control
smiles,measurement,setting,value
CC(C)N(C(=O)n1oc(=O)n(Cc2ccccc2)c1=O)c1ccccc1 [Compound 94],Redroot pigweed plant response rating,pigweed; [3],0
same,Redroot pigweed plant response rating,pigweed; [4],0
same,Redroot pigweed plant response rating,pigweed; [5],0
same,"Plant response rating, Redroot pigweed",pigweed; [6],0
same,"Plant response rating, Redroot pigweed",pigweed; [7],0
same,Redroot pigweed plant response rating,pigweed; [8],4
same,"Plant response rating, Redroot pigweed","pigweed; Rate 250 g/ha, Postemergence, scale 0 to 10, 0 is no effect, 10 is complete control",2
same,Redroot pigweed plant response rating,pigweed; [9],4
same,"Plant response rating, Green foxtail","green foxtail; Rate 250 g/ha, 0 to 100 scale",80
same,"Plant response rating, Green foxtail",green foxtail; [10],90
same,"Plant response rating, Green foxtail",green foxtail; [11],100
same,"Plant response rating, I. Ryegrass","Italian ryegrass; Rate 250 g/ha, 0 to 100 scale",40
same,"Plant response rating, I. Ryegrass",Italian ryegrass; [10],60
same,"Plant response rating, I. Ryegrass",Italian ryegrass; [11],60
same,Nutsedge plant response rating,purple nutsedge; [3],0
same,Nutsedge plant response rating,purple nutsedge; [4],0
same,Nutsedge plant response rating,"purple nutsedge; Postemergence, Rate 250 g/ha, scale 0 to 10, 0 no effect, 10 complete control",0
same,Nutsedge plant response rating,purple nutsedge; [5],0
same,"Plant response rating, Nutsedge",purple nutsedge; [6],0
same,"Plant response rating, Nutsedge",purple nutsedge; [7],0
same,Nutsedge plant response rating,purple nutsedge; [8],0
same,Nutsedge plant response rating,purple nutsedge; [9],0
same,"Plant response rating, Blackgrass","blackgrass; Rate 250 g/ha, 0 to 100 scale",60
same,"Plant response rating, Blackgrass",blackgrass; [10],60
same,"Plant response rating, Blackgrass",blackgrass; [11],60
same,Plant response rating Large crabgrass,large crabgrass; [12],98
same,Plant response rating Large crabgrass,large crabgrass; Rate 500 g/ha,100
same,Sugarbeets plant response rating,sugar beet; [3],2
same,Sugarbeets plant response rating,sugar beet; [4],2
same,Sugarbeets plant response rating,sugar beet; [5],0
same,Sugarbeets plant response rating (0 to 10 scale),"sugar beet; Preemergence, Rate 125 g/ha, 0 is no effect, 10 is complete control",0
same,"Plant response rating, Sugarbeets","sugar beet; Preemergence, scale of 0 to 10 where 0 is no effect and 10 is complete control",0
same,Sugarbeets plant response rating,sugar beet; [8],2
same,"Plant response rating, Sugarbeets","sugar beet; Postemergence, scale 0 to 10, 0 is no effect, 10 is complete control",2
same,Sugarbeets plant response rating,sugar beet; [9],3
same,"Plant response rating, C. ragweed",common ragweed; [12],0
same,"Plant response rating, C. ragweed",common ragweed; Rate 500 g/ha,10
same,"Plant response rating, Wheat (winter)","winter wheat [1]; Rate 250 g/ha, 0 to 100 scale",30
same,"Plant response rating, Wheat (winter)",winter wheat [1]; [10],30
same,"Plant response rating, Wheat (winter)",winter wheat [1]; [11],40
same,"Plant response rating, Wheat (winter)","winter wheat [2]; Rate 250 g/ha, 0 to 100 scale (0 no effect, 100 complete control)",0
same,"Plant response rating, Wheat (winter)","winter wheat [2]; Rate 1000 g/ha, 0 to 100 scale, 0 is no effect and 100 is complete control",0
same,"Plant response rating, Wheat (winter)","winter wheat [2]; Rate 500 g/ha, 0 to 100 scale, 0 no effect, 100 complete control",0
same,"Plant response rating, Wild oat",wild oat; Rate 500 g/ha,40
same,"Plant response rating, Wild oat",wild oat; Rate 1000 g/ha,50
same,Rice plant response rating,"rice; Postemergence (flood test species), Rate 125 g/ha, scale of 0 to 10 where 0 is no effect and 10 is complete control",0
same,Rice plant response rating,rice; [3],0
same,"Plant response rating, Rice","rice; Rate 250 g/ha, Postemergence (flood test), scale 0 to 10, 0 is no effect, 10 is complete control",0
same,Rice plant response rating,"rice; Rate 250 g/ha, headed Pre-emergence (flood test species), scale 0 to 10 (0 no effect, 10 complete control)",0
same,"Plant response rating, Rice","rice; Rate 500 g/ha, headed Pre-emergence (flood test species), scale 0 to 10 (0 no effect, 10 complete control)",0
same,Rice plant response rating,"rice; Rate 500 g/ha, listed under Postemergence (flood test species), scale 0 to 10, 0 no effect, 10 complete control",0
same,Rice plant response rating,"rice; Rate 1000 g/ha, Pre-emergence (as headed), scale 0 to 10",0
same,Rice plant response rating,"rice; Rate 2000 g/ha, Pre-emergence (as headed), scale 0 to 10",0
same,"Plant response rating, Barley (winter)","winter barley; Rate 250 g/ha, 0 to 100 scale",40
same,"Plant response rating, Barley (winter)",winter barley; [10],50
same,"Plant response rating, Barley (winter)",winter barley; [11],50
